Laboratory results published in ChEMBL document CHEMBL5537165, “Hepatitis C: The Story of a Long Journey through First, Second, and Third Generation NS3/4A Peptidomimetic Inhibitors. What Did We Learn?” (J Med Chem, 2024).
Where a SMILES comes first, the peptide text is derived from it. [ ]: non-standard residue; d: D form. The star is where a group is joined. Pyrazinecarbonyl = O=C(c1cnccn1)*; Hyp = O=C(O)[C@@H]1C[C@@H](O)CN1; Abu = CC[C@H](N)C(=O)O; Bn = c1ccc(C*)cc1

Assays:
[1] = target: Replicase polyprotein 1ab (Severe acute respiratory syndrome coronavirus 2, UniProt P0DTD1); assay: Inhibition of SARS-CoV-2 3CL protease by FRET assay
SARS-CoV-2 = assay: Antiviral activity against SARS-CoV-2 infected in African green monkey Vero E6 cells assessed as reduction in viral replication measured after 48 hrs by Hoechst 33342 staining based analysis; type: functional, organism-based; conditions: Severe acute respiratory syndrome coronavirus 2, Vero C1008, 48 h
[2] = target: T1, Non-structural protein 4b (Hepacivirus hominis, UniProt F5B4I0); assay: Inhibition of Hepatitis C virus genotype 1b NS4B
T1 sequence (F5B4I0 whole entry): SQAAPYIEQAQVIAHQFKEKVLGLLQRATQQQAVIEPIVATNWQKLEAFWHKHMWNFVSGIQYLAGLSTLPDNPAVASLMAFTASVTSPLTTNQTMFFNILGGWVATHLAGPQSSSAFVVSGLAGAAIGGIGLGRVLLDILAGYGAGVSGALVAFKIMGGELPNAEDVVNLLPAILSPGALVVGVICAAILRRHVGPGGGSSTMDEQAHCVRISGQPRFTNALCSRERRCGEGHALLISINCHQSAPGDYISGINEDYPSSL

[3] = target: T1, Non-structural protein 4b; assay: Inhibition of Hepatitis C virus genotype 3a NS4B
[4] = target: T1, Non-structural protein 4b; assay: Binding affinity to Hepatitis C virus genotype 1 NS4B assessed as inhibition constant
[5] = Inhibition of Hepatitis C virus NS3 protease; parameters: species or system Hepacivirus hominis
[6] = target: T1, Non-structural protein 4b; assay: Inhibition of full length Hepatitis C virus genotype 1b NS4B expressed in Escherichia coli
[7] = Oral bioavailability in Sprague-Dawley rat; type: ADME, organism-based; conditions: in vivo
[8] = Oral bioavailability in Beagle dog at 2 mg/kg; type: ADME, organism-based, Canis lupus familiaris; conditions: in vivo
[9] = Clearance in Sprague-Dawley rat at 2 mg/kg, iv by LC-MS/MS analysis; type: ADME, organism-based; conditions: in vivo
[10] = target: T1, Non-structural protein 4b; assay: Binding affinity to Hepatitis C virus genotype 1a NS4B assessed as inhibition constant
[11] = target: T1, Non-structural protein 4b; assay: Binding affinity to Hepatitis C virus genotype 3a NS4B assessed as inhibition constant
[12] = Cmax in Sprague-Dawley rat at 3 mg/kg, po and measured upto 24 hrs by LC-MS/MS analysis; type: ADME, organism-based; conditions: in vivo
[13] = Half life in Sprague-Dawley rat at 5 mg/kg, po by LC-MS/MS analysis; type: ADME, organism-based; conditions: in vivo
[14] = AUC (0 to infinity) in liver to plasma of Sprague-Dawley rat at 3 mg/kg,po; type: ADME, organism-based; conditions: in vivo
[15] = Half life in Beagle dog at 5 mg/kg, po by LC-MS/MS analysis; type: ADME, organism-based, Canis lupus familiaris; conditions: in vivo
[16] = AUC in Sprague-Dawley rat plasma […] at 10 mg/kg, po administered via gavage by LC-MS/MS analysis; type: ADME, organism-based; conditions: in vivo
[17] = Cmax in Beagle dog at 3 mg/kg, po and measured upto 24 hrs by LC-MS/MS analysis; type: ADME, organism-based, Canis lupus familiaris; conditions: in vivo
[18] = Clearance in Beagle dog plasma at 0.5 mg/kg, iv and measured upto 24 hrs by LC-MS/MS analysis; type: ADME, organism-based, Canis lupus familiaris
[19] = Volume of distribution at steady state in Sprague-Dawley rat at 1 mg/kg, iv; type: ADME, organism-based; conditions: in vivo, read-out: Vdss
[20] = Volume of distribution at steady state in Beagle dog at 0.5 mg/kg, iv and measured upto 24 hrs by LC-MS/MS analysis; type: ADME, organism-based, Canis lupus familiaris; conditions: in vivo, read-out: Vdss
[21] = target: T1, Non-structural protein 4b; assay: Binding affinity to full length Hepatitis C virus genotype 1b NS4B expressed in Escherichia coli assessed as inhibition constant
[22] = target: T1, Non-structural protein 4b; assay: Binding affinity to Hepatitis C virus genotype 1b NS4B assessed as inhibition constant

Which IC50 [1] does the source give for C=C[C@@H]1C[C@]1(NC(=O)[C@@H]1C[C@@H](Oc2cc(-c3csc(NC(C)C)n3)nc3c(C(C)C)c(OC)ccc23)CN1C(=O)[C@@H](NC(=O)OC1CCCC1)C(C)(C)C)C(=O)O here?
The IC50 was 14 nM.

And the EC50 (SARS-CoV-2)?
The EC50 was 45 nM.

With Cc1nc2ccccc2c2c1O[C@]1(CC2)C[C@H]2C(=O)N[C@]3(C(=O)NS(=O)(=O)C4(C)CC4)C[C@H]3/C=C/CCCCC[C@H](NC(=O)OC(C)(C)C)C(=O)N2C1 as the compound, how does the IC50 [2] read?
The IC50 was 0.013 nM.

And the IC50 [3]?
Its IC50 is 0.7 nM.

Which Ki [4] does the source give for CC[C@@H](C=O)NC(=O)[C@@H]1C[C@@H](OCc2ccccc2)CN1C(=O)[C@@H](NC(=O)[C@@H](NC(=O)[C@H](CC(=O)O)NC(=O)[C@H](CCC(=O)O)NC(C)=O)C(C)C)C(C)C (Ac-EDVV[Hyp](Bn)[Abu]-aldehyde) here?
The Ki was 890 nM.

For CCC[C@H](NC(=O)[C@@H]1C[C@@H](OCc2cccc3ccccc23)CN1C(=O)[C@@H](NC(=O)[C@@H](NC(=O)[C@@H](CC(=O)O)NC(=O)[C@H](CC(=O)O)NC(C)=O)C1CCCCC1)C(C)C)C(=O)O, which IC50 [5] is on record?
Its IC50 is 27 nM.

For C=C[C@@H]1C[C@]1(NC(=O)[C@@H]1C[C@@H](Oc2cc(-c3ccccc3)nc3cc(OC)ccc23)CN1C(=O)[C@@H](NC(=O)OC1CCCC1)C(C)(C)C)C(=O)O, which IC50 [6] is on record?
Its IC50 is 14 nM.

Which IC50 [6] does the source give for C=C[C@@H]1C[C@]1(NC(=O)[C@@H]1C[C@@H]2CN1C(=O)[C@H](C(C)(C)C)NC(=O)OCCC/C=C/c1ccc3ccnc(c3c1)O2)C(=O)NS(=O)(=O)C1CC1 here?
The IC50 was 210 nM.

With C=C[C@@H]1C[C@]1(NC(=O)[C@@H]1C[C@]23CCc4c(c(nc5ccc(OC)cc45)CCCCC[C@@H]4C[C@H]4OC(=O)N[C@@H](C4(C)CCCCC4)C(=O)N1C2)O3)C(=O)NS(=O)(=O)C1(C)CC1 as the compound, how does the IC50 [3] read?
The IC50 was 4.5 nM.

Which bioavailability [7] does the source give for COc1ccc2nc3c(nc2c1)O[C@@H]1CC2C(=O)N[C@]4(C(=O)NS(=O)(=O)C5(C)CC5)C[C@@H]4/C=C/CCCCC[C@H](NC(=O)O[C@@H]4CCC[C@H]4CCCCC3)C(=O)N2C1 (some centres undefined) here?
The bioavailability was 8%.

What about the bioavailability [8] of the same compound?
The bioavailability was 12%.

And the clearance [9]?
The clearance was 33 mL/min/kg.

And the Ki [10]?
Its Ki is 0.005 nM.

And the Ki [11]?
The Ki was 0.26 nM.

And the Cmax [12]?
The Cmax was 70 nM.

And the half-life [13]?
Its half-life is 3.8 h.

What about the AUC [14] of the same compound?
Its AUC is 2470 µM·h.

And the half-life [15]?
The half-life was 2.3 h.

And the AUC [16]?
The AUC was 20 µM·h.

What about the Cmax [17] of the same compound?
The Cmax was 350 nM.

What about the clearance [18] of the same compound?
The clearance was 4.4 mL/min/kg.

And the Vd [19]?
The Vd was 4 L/kg.

What about the Vd [20] of the same compound?
The Vd was 0.5 L/kg.

With COc1ccc2c(O[C@@H]3C[C@H]4C(=O)N[C@]5(C(=O)O)C[C@H]5/C=C/CCCCC[C@H](NC(=O)OC(C)(C)C)C(=O)N4C3)cc(-c3ccccc3)nc2c1 as the compound, how does the IC50 [5] read?
The IC50 was 11 nM.

For C=C[C@H]1C[C@]1(NC(=O)[C@@H]1C[C@@H]2CN1C(=O)[C@H](C(C)(C)C)NC(=O)OCCC/C=C/c1cccc3c1CN(C3)C(=O)O2)C(=O)NS(=O)(=O)C1CC1, which IC50 [6] is on record?
The IC50 was 7 nM.

And the Ki [21]?
The Ki was 0.05 nM.

With C=C[C@@H]1C[C@]1(NC(=O)[C@@H]1C[C@@H](Oc2cc3ccccc3cn2)CN1C(=O)[C@@H](NC(=O)OCC(C)C)C(C)(C)C)C(=O)NS(=O)(=O)C1(C)CC1 as the compound, how does the IC50 [2] read?
The IC50 was 2.7 nM.

What about the IC50 [3] of the same compound?
Its IC50 is 430 nM.

For CC[C@@H]1C[C@]1(NC(=O)[C@@H]1C[C@@H]2CN1C(=O)[C@H](C(C)(C)C)NC(=O)OCC(C)(C)CCCCc1cccc3c1CN(C3)C(=O)O2)C(=O)NS(=O)(=O)C1CC1, which IC50 [2] is on record?
Its IC50 is 3 nM.

What about the Ki [22] of the same compound?
The Ki was 0.05 nM.

Which Ki [4] does the source give for CCC[C@H](NC(=O)[C@@H]1C[C@@H](OC(=O)N2CCc3ccccc3C2)CN1C(=O)[C@@H](NC(=O)[C@@H](NC(=O)c1cnccn1)C(C)C)C(C)C)C(=O)C(=O)NC1CC1 here?
Its Ki is 2300 nM.

Which Ki [4] does the source give for CC[C@@H](C=O)NC(=O)[C@@H]1C[C@@H](OCc2ccccc2)CN1C(=O)[C@@H](NC(=O)[C@@H](NC(=O)c1cnccn1)C(C)C)C(C)C (Pyrazinecarbonyl-VV[Hyp](Bn)[Abu]-aldehyde) here?
Its Ki is 12000 nM.

With C=C[C@@H]1C[C@]1(NC(=O)[C@@H]1C[C@@H](Oc2cc(-c3ccccc3)nc3cc(OC)ccc23)CN1C(=O)[C@H](CCCCC)NC(=O)OC(C)(C)C)C(=O)O as the compound, how does the IC50 [5] read?
The IC50 was 400 nM.

With COc1ccc2nc(C(F)(F)F)c3c(c2c1)CC[C@]1(C[C@H]2C(=O)N[C@]4(C(=O)NS(=O)(=O)C5(C)CC5)C[C@H]4/C=C/CCCCCC(NC(=O)OC(C)(C)C)C(=O)N2C1)O3 (some centres undefined) as the compound, how does the IC50 [3] read?
The IC50 was 0.47 nM.
